Source: patent US8350032B2, “Integrated photoactive agents for real-time monitoring of hemostasis” (MediBeacon Development, LLC, priority 2007, dated 2013)

Tested on: production of thrombin via activation of the extrinsic cascade (tissue factor pathway)
Experiment: whole blood activity screen: inhibition of thrombin production when clotting is activated via the tissue factor pathway (extrinsic cascade)
Assay type: biochemical
Conditions: nine concentrations, in triplicate, FIG. 4
Experimental: The compound (MP3117) of Example 1 was tested for its ability to inhibit the production of thrombin via activation of the extrinsic cascade. In particular, an assay that included a whole blood activity screen was performed. In this regard, nine aqueous solutions containing varying concentrations of the compound of Example 1 were tested for their ability to inhibit thrombin production when clotting was activated via the tissue factor pathway (in triplicate). The data from the assay was also utilized to extract the IC50 for the compound. Incidentally, “IC50” refers to the amount of a compound necessary to inhibit 50% of the active enzyme to which it binds.

N=C(N)c1ccc(CNC(=O)c2nc(N)c(C(=O)NCc3ccc(C(=N)N)cc3)nc2N)cc1 [Example 1, 3,6-diamino-N2,N5-bis(4-carbamimidoylbenzyl)pyrazine-2,5-dicarboxamide]
IC50: 12.4 ± 0.79 nM
